Reference: PubChem BioAssay (NCI)
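Values below derive from 48-hour exposures of cells grown in 96-well plates, with endpoints linearly interpolated between the two concentrations bracketing the appropriate inhibition level. Abbreviation: GI50, concentration required for 50% inhibition of growth. TGI: total growth inhibition.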

Columns and labels:
Assay in all cases: NCI-60 cell line screen, 48 h
CCRF-CEM leukemia = test system: CCRF-CEM leukemia
HCT-116 colon = test system: HCT-116 colon
HOP-62 NSCLC = test system: HOP-62 NSCLC
HS 578T breast = test system: HS 578T breast
K-562 leukemia = test system: K-562 leukemia
KM12 colon = test system: KM12 colon
MOLT-4 leukemia = test system: MOLT-4 leukemia
SK-MEL-5 melanoma = test system: SK-MEL-5 melanoma
SNB-75 CNS = test system: SNB-75 CNS
UACC-62 melanoma = test system: UACC-62 melanoma

| SMILES | TGI (CCRF-CEM leukemia) [µM] | TGI (HCT-116 colon) [µM] | TGI (HOP-62 NSCLC) [µM] | TGI (HS 578T breast) [µM] | TGI (K-562 leukemia) [µM] | TGI (KM12 colon) [µM] | TGI (MOLT-4 leukemia) [µM] | TGI (SK-MEL-5 melanoma) [µM] | TGI (SNB-75 CNS) [µM] | TGI (UACC-62 melanoma) [µM] | GI50 (CCRF-CEM leukemia) [µM] | GI50 (HCT-116 colon) [µM] | GI50 (HOP-62 NSCLC) [µM] | GI50 (HS 578T breast) [µM] | GI50 (K-562 leukemia) [µM] | GI50 (KM12 colon) [µM] | GI50 (MOLT-4 leukemia) [µM] | GI50 (SK-MEL-5 melanoma) [µM] | GI50 (SNB-75 CNS) [µM] | GI50 (UACC-62 melanoma) [µM] |
| --- | --- | --- | --- | --- | --- | --- | --- | --- | --- | --- | --- | --- | --- | --- | --- | --- | --- | --- | --- | --- |
| COc1ccc2c(c1)/C(=C\c1c(Cl)nc3sc(C)cn13)C(=O)N2 | 6.15 | 14.1 | 19.4 | 9.6 | 9.56 | 15.2 | 8.41 | 11.8 | 17.1 | 16.4 |  |  |  |  |  |  |  |  |  |  |
| CCOC(=O)Cn1c(=O)c2nc(SC)sc2n(-c2ccccc2)c1=O | > 100 | > 100 | > 100 | > 100 | > 100 | > 100 | > 100 | > 100 | > 100 | > 100 |  |  |  |  |  |  |  |  |  |  |
| O=C1NCC2(CCN(CCCC3(c4ccc(F)cc4)OCCO3)CC2)N1c1ccccc1 | > 100 | > 100 | > 100 | > 100 | > 100 | > 100 | > 100 | > 100 | > 100 | > 100 |  |  |  |  |  |  |  |  |  |  |
| CN1CSC(=S)N(c2c3ccccc3nc3ccc(Br)cc23)C1 | 22.8 | 15.7 | 51 | 47.2 | > 32.4 | 33.6 | 5.87 | 26.2 | 23.7 | 27.4 |  |  |  |  |  |  |  |  |  |  |
| COc1cc(/C=C/C(=O)CC(=O)/C=C/c2ccc(OC(=O)CCCCC3CCSS3)c(OC)c2)ccc1OC(=O)CCCCC1CCSS1 (stereo not given) | > 100 | > 100 | > 100 | > 100 | > 100 | > 100 | > 100 | > 100 | > 100 | > 100 |  |  |  |  |  |  |  |  |  |  |
| CC1=C[C@@H]2Cc3nc4cc(Cl)ccc4c(N)c3[C@H](C1)C2 | 74 | 14.5 | 24 | 9.75 | 14.3 | 21.6 | 11.6 | 11.2 | 17.9 | 31.5 |  |  |  |  |  |  |  |  |  |  |
| COc1ccc(NC(=O)CC(=O)N2N=C(N3c4ccccc4Sc4ccccc43)CC2c2ccccc2)cc1 (stereo not given) | > 100 | > 100 | > 100 | 96.9 | > 100 | > 100 | > 100 | > 100 | > 100 | > 100 |  |  |  |  |  |  |  |  |  |  |
| CCN(CC)CCN(C(=Nc1ccccc1)N1CCOCC1)c1ccccc1 | > 100 | 89.8 | > 100 | > 100 | > 100 | > 100 | > 100 | > 100 | > 100 | > 100 |  |  |  |  |  |  |  |  |  |  |
| Cc1ccc(-c2[nH]c(=O)n(C3OC(CO)C(O)C(O)C3O)c(=O)c2C#N)cc1 (stereo not given) | > 100 | > 100 | > 100 | > 100 | > 100 | > 100 | > 100 | > 100 | > 100 | > 100 |  |  |  |  |  |  |  |  |  |  |
| Cc1ccc(C(=C2Sc3ccccc3S2)C(=C2Sc3ccccc3S2)c2ccc(C)s2)s1 | > 100 | > 100 | > 100 | > 100 | > 100 | > 100 | > 100 | > 100 | > 100 | > 100 |  |  |  |  |  |  |  |  |  |  |
| CO[C@H]1/C=C(/C)CCC[C@H](C)[C@H](O)[C@@H](C)C(=O)C(C)(C)[C@@H](O)CC(=O)O[C@@H]1/C(C)=C/c1csc(C)n1 | > 100 | > 100 | > 100 | > 100 | > 100 | > 100 | > 100 | > 100 | 0.0319 | > 100 | 0.03 | < 0.0129 | 0.0414 | 0.0234 | < 0.0173 | < 0.0129 | 0.0359 | 0.0186 | < 0.01 | 0.0287 |
| CC1OC(OC2C(OC(=O)[C@]34CCC(C)(C)C[C@H]3C3=CC[C@@H]5[C@@]6(C)CC[C@H](OC7OC(C(=O)O)C(O)C(O)C7O)C(C)(C)[C@@H]6CC[C@@]5(C)[C@]3(C)C[C@H]4O)OCC(O)C2O)C(O)C(OC2OCC(O)(CO)C2O)C1OC1OCC(O)C(O)C1O (stereo not given in full) | 52.1 | 19.8 | 32.4 | 40 | 35.8 | 16.3 | 38.8 | 28.1 | 31.8 | 31 |  |  |  |  |  |  |  |  |  |  |
| CS(=O)c1ncc2c(n1)-c1ccccc1OC2 (stereo not given) | > 100 | > 100 | > 100 | > 100 | > 100 | > 100 | > 100 | > 100 | > 100 | > 100 |  |  |  |  |  |  |  |  |  |  |
| O=C(CC(C(=O)c1ccsc1)c1ccc2c(c1)OCO2)c1ccccc1 (stereo not given) | > 100 | > 100 | > 100 | > 100 | > 100 | > 100 | > 100 | > 100 | > 100 | > 100 |  |  |  |  |  |  |  |  |  |  |
| c1c[nH]c(-c2ccc(-c3ccc[nH]3)c3nsnc23)c1 | > 35.3 | > 59.8 | > 80.1 | > 100 | > 49.1 | > 100 | > 45.8 | > 100 | > 85.8 | > 100 |  |  |  |  |  |  |  |  |  |  |
